Patent US20240254129A1, “HETEROCYCLIC COMPOUNDS AND USES THEREOF” (Kumquat Biosciences Inc., priority 2021, published 2024)
Read-outs that look alike come from different tables or passages of the source.

Legend:
[1] = biological target: GST-tagged K-Ras mutant / His-tagged hSOS1 (Homo sapiens, UniProt P01116); assay: HTRF assay, K-Ras mutant / SOS1 interaction; format: binding; details: read-out: IC50 against mutant Kras
Outline: (§1)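 HTRF read-out (ex 337, em 620 and 665 nm) of Ras–SOS1 equilibrium binding: Eu-anti-GST on GST-K-Ras, XL665-anti-6His on His-hSOS1. Incubation about 10 min or longer; IC50 fitted from emission ratio, compounds in duplicate at 10 μM down to 0.01 μM.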

wildtype Kras / hSOS1 = biological target: T1, wildtype Kras / hSOS1 (Homo sapiens, UniProt P01116); assay: HTRF assay, wildtype Kras / SOS1 interaction; format: binding; details: read-out: IC50 against wildtype Kras
T1 construct: made in house; host or cells: E. coli BL21 (DE3)
Outline: as §1

[2] = compound nos. 102-196, general methodology of example 5
[3] = compound nos. 201-213, general methodology of example 5

GST-tagged K-Ras mutant / His-tagged hSOS1, sequence (P01116 whole entry G12D, form open): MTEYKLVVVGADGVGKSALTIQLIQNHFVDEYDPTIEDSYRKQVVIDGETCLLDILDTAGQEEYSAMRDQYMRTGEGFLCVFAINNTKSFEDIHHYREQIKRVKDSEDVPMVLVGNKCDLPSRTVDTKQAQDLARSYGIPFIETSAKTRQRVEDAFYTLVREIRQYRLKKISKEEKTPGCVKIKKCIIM
T1 sequence (P01116 1-188 isoform P01116-2): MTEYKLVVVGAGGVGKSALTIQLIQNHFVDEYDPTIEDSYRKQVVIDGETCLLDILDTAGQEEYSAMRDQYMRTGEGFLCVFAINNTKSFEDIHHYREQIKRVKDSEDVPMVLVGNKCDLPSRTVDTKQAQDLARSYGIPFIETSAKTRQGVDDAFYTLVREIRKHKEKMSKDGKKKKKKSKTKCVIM

Structure (SMILES)	IC50 ([1]; compound nos. 401-703) [nM]	IC50 (wildtype Kras / hSOS1; compound nos. 401-703) [nM]	further results
CN1CCC[C@@H]1COc1nc(N2CCNCC(F)(F)C2)c2cc(Cl)c(-c3cccc4sc(N)nc34)c(F)c2n1 [Compound 113, 4-(6-chloro-4-(6,6-difluoro-1,4-diazepan-1-yl)-8-fluoro-2-(((R)-1-methylpyrrolidin-2-yl)methoxy)quinazolin-7-yl)benzo[d]thiazol-2-amine]	–	–	IC50 [1, 2]: < 500 nM; IC50 (wildtype Kras / hSOS1; [2]): < 500 nM
Nc1nc2c(-c3c(Cl)cc4c(N5CCCOCC5)nc(OCC56CCCN5CCC6)nc4c3F)ccc(F)c2s1 [Compound 148, 4-(6-chloro-8-fluoro-4-(1,4-oxazepan-4-yl)-2-((tetra-hydro-1H-pyrrolizin-7a(5H)-yl)methoxy)quinazolin-7-yl)-7-fluorobenzo[d]thiazol-2-amine]	–	–	IC50 [1, 2]: < 500 nM; IC50 (wildtype Kras / hSOS1; [2]): < 500 nM
N#Cc1c(N)sc2c(F)ccc(-c3c(Cl)cc4c(N5CCNCC(F)(F)C5)nc(OC[C@@]56CCCN5C[C@H](F)C6)nc4c3F)c12 [Compound 405, 2-amino-4-(6-chloro-4-(6,6-difluoro-1,4-diazepan-1-yl)-8-fluoro-2-(((2R,7aS)-2-fluorotetrahydro-1H-pyr-rolizin-7a(5H)-yl)methoxy)-quinazolin-7-yl)-7-fluoro-benzo[b]thiophene-3-carbonitrile]	> 500	< 500	–
Nc1nc2c(-c3c(Cl)cc4c(N5[C@@H]6CCC[C@H]5C[C@H](O)C6)nc(OC[C@@]56CCCN5C[C@H](F)C6)nc4c3F)ccc(F)c2s1 [Compound 305, (1R,3R,5S)-9-(7-(2-amino-7-fluorobenzo[d]thiazol-4-yl)-6-chloro-8-fluoro-2-(((2R,7aS)-2-fluorotetra-hydro-1H-pyrrolizin-7a(5H)-yl)methoxy)quinazolin-4-yl)-9-azabicyclo[3.3.1]-nonan-3-ol]	–	–	IC50 ([1]; compound nos. 301-306): < 1500 nM; IC50 (wildtype Kras / hSOS1; compound nos. 301-306): < 1500 nM
Nc1nc2c(-c3ccc4c(N5C[C@H]6CCNCC[C@H]6C5)nc(OC[C@@]56CCCN5C[C@H](F)C6)nc4c3F)ccc(F)c2s1 [Compound 408, 7-fluoro-4-(8-fluoro-2-(((2R,7aS)-2-fluorotetra-hydro-1H-pyrrolizin-7a(5H)-yl)methoxy)-4-((3aR,8aS)-octahydropyrrolo[3,4-d]-azepin-2(1H)-yl)quinazolin-7-yl)benzo[d]thiazol-2-amine]	> 500	< 500	–
Cc1ncc(COc2nc(N3CCCCCC3)c3cc(Cl)c(-c4cccc5sc(N)nc45)c(F)c3n2)cn1 [Compound 505, 4-(4-(azepan-1-yl)-6-chloro-8-fluoro-2-((2-methylpyr-imidin-5-yl)methoxy)quin-azolin-7-yl)benzo[d]thiazol-2-amine]	> 500	> 500	–
CN1CCC[C@H]1COc1nc(N2CCNCC(F)(F)C2)c2cc(C#N)c(-c3cccc4sc(N)nc34)c(F)c2n1 [Compound 125, 7-(2-aminobenzo[d]thiazol-4-yl)-4-(6,6-difluoro-1,4-diazepan-1-yl)-8-fluoro-2-(((S)-1-methylpyrrolidin-2-yl)methoxy)quinazoline-6-carbonitrile]	–	–	IC50 [1, 2]: > 500 nM; IC50 (wildtype Kras / hSOS1; [2]): > 500 nM
Oc1cc(-c2c(Cl)cc3c(N4C[C@H]5CC[C@@H](C4)N5)nc(OC[C@@]45CCCN4C[C@H](F)C5)nc3c2F)c2ccccc2c1 [Compound 202, 4-(4-((1R,5S)-3,8-diazabicyclo[3.2.1]octan-3-yl)-6-chloro-8-fluoro-2-(((2R,7aS)-2-fluorotetrahydro-1H-pyrrolizin-7a(5H)-yl)methoxy)quinazolin-7-yl)naphthalen-2-ol]	–	–	IC50 [1, 3]: < 1500 nM; IC50 (wildtype Kras / hSOS1; [3]): < 1500 nM
Cc1cc2[nH]ncc2c(-c2c(Cl)cc3c(N4CC5CCC(C4)N5)nc(OC[C@@]45CCCN4C[C@H](F)C5)nc3c2F)c1Cl [Compound 425, 4-(3,8-diazabicyclo[3.2.1]-octan-3-yl)-6-chloro-7-(5-chloro-6-methyl-1H-indazol-4-yl)-8-fluoro-2-(((2R,7aS)-2-fluorotetrahydro-1H-pyrrolizin-7a(5H)-yl)meth-oxy)quinazoline]	> 500	< 500	–
Fc1c(N2CCc3ccccc32)ccc2c(N3CCCCCC3)nc(OCC34CCCN3CCC4)nc12 [Compound 487, 4-(azepan-1-yl)-8-fluoro-7-(indolin-1-yl)-2-((tetra-hydro-1H-pyrrolizin-7a(5H)-yl)methoxy)quin-azoline]	> 500	< 500	–

More lines, main results first:

IC50 ([1]; compound nos. 401-703) [nM]	IC50 (wildtype Kras / hSOS1; compound nos. 401-703) [nM]	Structure (SMILES)	further results
< 500	> 500	Nc1nc2c(-c3c(Cl)cc4c(N5C[C@H]6CCNCC[C@H]6C5)nc(OC[C@@]56CCCN5C[C@H](F)C6)nc4c3F)ccc(F)c2s1 [Compound 528, 4-(6-chloro-8-fluoro-2-(((2R,7aS)-2-fluorotetra-hydro-1H-pyrrolizin-7a(5H)-yl)methoxy)-4-((3aR,8aS)-octahydropyr-rolo[3,4-d]azepin-2(1H)-yl)quinazolin-7-yl)-7-fluorobenzo[d]thiazol-2-amine]	–
< 500	> 500	Nc1nc2c(-c3c(Cl)cc4c(N5CC6CNCC(C5)N6)nc(OC[C@@]56CCCN5C[C@H](F)C6)nc4c3F)ccc(F)c2s1 [Compound 639, 4-(4-(3,7,9-triazabicyclo-[3.3.1]nonan-3-yl)-6-chloro-8-fluoro-2-(((2R,7aS)-2-fluorotetrahydro-1H-pyrrol-izin-7a(5H)-yl)methoxy)-quinazolin-7-yl)-7-fluoro-benzo[d]thiazol-2-amine]	–
> 500	< 500	Oc1cc(-c2ncc3c(N4C[C@H]5CC[C@@H](C4)N5)nc(OC[C@@]45CCCN4C[C@H](F)C5)nc3n2)c2ccccc2c1 [Compound 418, 4-(5-((1R,5S)-3,8-diazabicyclo[3.2.1]octan-3-yl)-7-(((2R,7aS)-2-fluorotetrahydro-1H-pyrrolizin-7a(5H)-yl)methoxy)pyrimido[4,5-d]pyrimidin-2-yl)naphthalen-2-ol]	–
< 500	> 500	CN(C)C/C=C/C(=O)N1CC2(CCCN(c3nc(OC[C@@]45CCCN4C[C@H](F)C5)nc4c(F)c(-c5ccc(F)c6sc(N)c(C#N)c56)c(Cl)cc34)C2)C1 [Compound 522, 2-amino-4-(6-chloro-4-(2-((E)-4-(dimethylamino)but-2-enoyl)-2,6-diazaspiro[3.5]nonan-6-yl)-8-fluoro-2-(((2R,7aS)-2-fluorotetrahydro-1H-pyrrolizin-7a(5H)-yl)methoxy)quinazolin-7-yl)-7-fluorobenzo[b]thiophene-3-carbonitrile]	–
< 500	< 500	CC(C)CN1CCCN(c2nc(OCC34CCCN3CCC4)nc3c(F)c(-c4ccc(F)c5sc(N)nc45)c(Cl)cc23)CC1 [Compound 460, 4-(6-chloro-8-fluoro-4-(4-isobutyl-1,4-diazepan-1-yl)-2-((tetrahydro-1H-pyrrolizin-7a(5H)-yl)methoxy)quin-azolin-7-yl)-7-fluorobenzo-[d]thiazol-2-amine-]	–
< 500	> 500	N#Cc1c(N)sc2c(F)ccc(-c3c(Cl)cc4c(N5CCCOCC5)nc(OC[C@@]56CCCN5C[C@H](F)C6)nc4c3F)c12 [Compound 598, 2-amino-4-(6-chloro-8-fluoro-2-(((2R,7aS)-2-fluorotetrahydro-1H-pyrrol-izin-7a(5H)-yl)methoxy)-4-(1,4-oxazepan-4-yl)quin-azolin-7-yl)-7-fluorobenzo-[b]thiophene-3-carbonitrile]	–
< 500	> 500	NC(=O)C1COCCN(c2nc(OC[C@@]34CCCN3C[C@H](F)C4)nc3c(F)c(-c4ccc(F)c5sc(N)nc45)c(Cl)cc23)C1 (stereo partly drawn) [Compound 507, 4-(7-(2-amino-7-fluoroben-zo[d]thiazol-4-yl)-6-chloro-8-fluoro-2-(((2R,7aS)-2-fluorotetrahydro-1H-pyrrol-izin-7a(5H)-yl)methoxy)-quinazolin-4-yl)-1,4-oxazepane-6-carboxamide]	–
> 500	< 500	CN(C)CC1(COc2nc(N3CC4CCC(C3)N4)c3ccc(-c4cccc5cccc(Cl)c45)c(F)c3n2)CC1 [Compound 447, 1-(1-(((4-(3,8-diazabicyclo-[3.2.1]octan-3-yl)-7-(8-chloronaphthalen-1-yl)-8-fluoroquinazolin-2-yl)oxy)-methyl)cyclopropyl)-N,N-dimethylmethanamine]	–
< 500	> 500	CN(C)CC1(COc2nc(N3CC4CCC(C3)N4)c3cc(Cl)c(-c4ccc(F)c5sc(N)nc45)c(F)c3n2)CC1 [Compound 523, 4-(4-(3,8-diazabicyclo-[3.2.1]octan-3-yl)-6-chloro-2-((1-((dimethylamino)-methyl)cyclopropyl)meth-oxy)-8-fluoroquinazolin-7-yl)-7-fluorobenzo[d]thiazol-2-amine]	–
> 500	> 500	Cc1ccc2[nH]nc(C#N)c2c1-c1ccc2c(N3CC4CCC(C3)N4)nc(OC[C@@]34CCCN3C[C@H](F)C4)nc2c1F [Compound 561, 4-(4-(3,8-diazabicyclo-[3.2.1]octan-3-yl)-8-fluoro-2-(((2R,7aS)-2-fluorotetra-hydro-1H-pyrrolizin-7a(5H)-yl)methoxy)quinazolin-7-yl)-5-methyl-1H-indazole-3-carbonitrile]	–
> 500	> 500	Oc1ccc2ccc(-c3c(Cl)cc4c(N5CC6CCC(C5)N6)nc(OCC56CCCN5CCC6)nc4c3F)cc2c1 [Compound 650, 7-(4-(3,8-diazabicyclo-[3.2.1]octan-3-yl)-6-chloro-8-fluoro-2-((tetrahydro-1H-pyrrolizin-7a(5H)-yl)meth-oxy)quinazolin-7-yl)naph-thalen-2-ol]	–
